Measured values as given in ChEMBL document CHEMBL1150528, “The heparin-like antiproliferative activity of sulfated tetrasaccharides is sensitive to structural variation” (Bioorg Med Chem Lett, 1995).

Legend:
[1] = biological target: Prothrombin (Homo sapiens, UniProt P00734); test: Anticoagulant activity when interacted with Coagulation factor II
[2] = biological target: Coagulation factor X (Homo sapiens, UniProt P00742); test: Anticoagulant activity when interacted with Coagulation factor X
[3] = species on record: Rattus norvegicus; test: Relative inhibitory activity (ri) was measured in rat smooth muscle cells (SMC) at 100 ug/mL in comparison to that of Heparin; type: functional

Coagulation factor X, sequence (P00742 41-179 limits assumed): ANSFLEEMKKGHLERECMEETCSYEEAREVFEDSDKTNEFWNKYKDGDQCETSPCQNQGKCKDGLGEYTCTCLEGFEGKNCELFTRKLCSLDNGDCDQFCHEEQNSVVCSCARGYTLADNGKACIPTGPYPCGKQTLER
Coagulation factor X, sequence (P00742 235-488 limits assumed): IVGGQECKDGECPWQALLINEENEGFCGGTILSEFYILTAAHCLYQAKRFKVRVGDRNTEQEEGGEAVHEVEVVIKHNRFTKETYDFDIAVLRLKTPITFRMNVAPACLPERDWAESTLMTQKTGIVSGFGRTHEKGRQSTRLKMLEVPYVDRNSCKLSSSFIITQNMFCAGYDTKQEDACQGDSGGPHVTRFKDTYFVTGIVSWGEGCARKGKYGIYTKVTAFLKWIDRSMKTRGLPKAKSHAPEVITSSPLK

Structure (SMILES)	IC50 [1] [µM]	IC50 [2] [µM]	Relative inhibitory activity [3]
O=S(=O)([O-])OC[C@@H]1O[C@@H](O[C@H]2O[C@@H](COS(=O)(=O)[O-])[C@@H](O[C@@H]3O[C@@H](CO[C@H]4O[C@@H](COS(=O)(=O)[O-])[C@@H](OS(=O)(=O)[O-])[C@H](OS(=O)(=O)[O-])[C@@H]4OS(=O)(=O)[O-])[C@@H](OS(=O)(=O)[O-])[C@H](OS(=O)(=O)[O-])[C@@H]3OS(=O)(=O)[O-])[C@H](OS(=O)(=O)[O-])[C@@H]2OS(=O)(=O)[O-])[C@@H](OS(=O)(=O)[O-])[C@@H](OS(=O)(=O)[O-])[C@H]1OS(=O)(=O)[O-].[Na+].[Na+].[Na+].[Na+].[Na+].[Na+].[Na+].[Na+].[Na+].[Na+].[Na+].[Na+].[Na+].[Na+]	> 477	> 477	0.9
O=S(=O)([O-])OC[C@@H]1O[C@H](O[C@H]2O[C@@H](COS(=O)(=O)[O-])[C@@H](O[C@@H]3O[C@@H](COS(=O)(=O)[O-])[C@@H](OS(=O)(=O)[O-])[C@H](OS(=O)(=O)[O-])[C@@H]3O[C@@H]3O[C@@H](COS(=O)(=O)[O-])[C@@H](OS(=O)(=O)[O-])[C@H](OS(=O)(=O)[O-])[C@@H]3OS(=O)(=O)[O-])[C@H](OS(=O)(=O)[O-])[C@@H]2OS(=O)(=O)[O-])[C@@H](OS(=O)(=O)[O-])[C@@H](OS(=O)(=O)[O-])[C@H]1OS(=O)(=O)[O-].[Na+].[Na+].[Na+].[Na+].[Na+].[Na+].[Na+].[Na+].[Na+].[Na+].[Na+].[Na+].[Na+].[Na+]	> 477	> 477	0.3
C[C@@H]1O[C@@H](OC[C@@H]2O[C@@H](O[C@H]3[C@H](OS(=O)(=O)[O-])[C@H](OS(=O)(=O)[O-])[C@@H](O[C@H]4O[C@@H](COS(=O)(=O)[O-])[C@H](OS(=O)(=O)[O-])[C@H](OS(=O)(=O)[O-])[C@@H]4OS(=O)(=O)[O-])O[C@H]3COS(=O)(=O)[O-])[C@@H](OS(=O)(=O)[O-])[C@@H](OS(=O)(=O)[O-])[C@@H]2OS(=O)(=O)[O-])[C@H](OS(=O)(=O)[O-])[C@@H](OS(=O)(=O)[O-])[C@H]1OS(=O)(=O)[O-].[Na+].[Na+].[Na+].[Na+].[Na+].[Na+].[Na+].[Na+].[Na+].[Na+].[Na+].[Na+].[Na+]	> 506	> 506	0.7
O=S(=O)([O-])OC[C@@H]1O[C@@H](O[C@@H]2[C@H](OS(=O)(=O)[O-])[C@@H](O[C@H]3[C@H](OS(=O)(=O)[O-])[C@H](OS(=O)(=O)[O-])[C@@H](O[C@H]4O[C@@H](COS(=O)(=O)[O-])[C@H](OS(=O)(=O)[O-])[C@H](OS(=O)(=O)[O-])[C@@H]4OS(=O)(=O)[O-])O[C@H]3COS(=O)(=O)[O-])OC[C@H]2OS(=O)(=O)[O-])[C@@H](OS(=O)(=O)[O-])[C@@H](OS(=O)(=O)[O-])[C@H]1OS(=O)(=O)[O-].[Na+].[Na+].[Na+].[Na+].[Na+].[Na+].[Na+].[Na+].[Na+].[Na+].[Na+].[Na+].[Na+]	> 509	> 509	0.7
O=S(=O)([O-])OC[C@@H]1O[C@H](O[C@H]2O[C@@H](COS(=O)(=O)[O-])[C@@H](O[C@@H]3O[C@@H](COS(=O)(=O)[O-])[C@@H](OS(=O)(=O)[O-])[C@H](OS(=O)(=O)[O-])[C@@H]3O[C@H]3O[C@@H](COS(=O)(=O)[O-])[C@H](OS(=O)(=O)[O-])[C@H](OS(=O)(=O)[O-])[C@@H]3OS(=O)(=O)[O-])[C@H](OS(=O)(=O)[O-])[C@@H]2OS(=O)(=O)[O-])[C@@H](OS(=O)(=O)[O-])[C@@H](OS(=O)(=O)[O-])[C@H]1OS(=O)(=O)[O-].[Na+].[Na+].[Na+].[Na+].[Na+].[Na+].[Na+].[Na+].[Na+].[Na+].[Na+].[Na+].[Na+].[Na+] (stereo in doubt; 2)	> 477	> 477	0.9
O=S(=O)([O-])OC[C@@H]1O[C@@H](O[C@H]2O[C@@H](COS(=O)(=O)[O-])[C@@H](O[C@@H]3O[C@@H](CO[C@H]4O[C@@H](COS(=O)(=O)[O-])[C@H](OS(=O)(=O)[O-])[C@H](OS(=O)(=O)[O-])[C@@H]4OS(=O)(=O)[O-])[C@@H](OS(=O)(=O)[O-])[C@H](OS(=O)(=O)[O-])[C@@H]3OS(=O)(=O)[O-])[C@H](OS(=O)(=O)[O-])[C@@H]2OS(=O)(=O)[O-])[C@@H](OS(=O)(=O)[O-])[C@@H](OS(=O)(=O)[O-])[C@H]1OS(=O)(=O)[O-].[Na+].[Na+].[Na+].[Na+].[Na+].[Na+].[Na+].[Na+].[Na+].[Na+].[Na+].[Na+].[Na+].[Na+] (stereo in doubt; 9)	> 477	> 477	0.8
O=S(=O)([O-])OC[C@@H]1O[C@@H](O[C@H]2O[C@@H](COS(=O)(=O)[O-])[C@@H](O[C@@H]3O[C@@H](CO[C@H]4O[C@@H](COS(=O)(=O)[O-])[C@H](OS(=O)(=O)[O-])[C@H](OS(=O)(=O)[O-])[C@@H]4OS(=O)(=O)[O-])[C@@H](OS(=O)(=O)[O-])[C@H](OS(=O)(=O)[O-])[C@@H]3OS(=O)(=O)[O-])[C@H](OS(=O)(=O)[O-])[C@@H]2OS(=O)(=O)[O-])[C@@H](OS(=O)(=O)[O-])[C@@H](OS(=O)(=O)[O-])[C@H]1OS(=O)(=O)[O-].[Na+].[Na+].[Na+].[Na+].[Na+].[Na+].[Na+].[Na+].[Na+].[Na+].[Na+].[Na+].[Na+].[Na+] (stereo in doubt; 12)	> 477	> 477	0.6
O=S(=O)([O-])OC[C@@H]1O[C@H](O[C@H]2O[C@@H](COS(=O)(=O)[O-])[C@@H](O[C@@H]3O[C@@H](COS(=O)(=O)[O-])[C@@H](OS(=O)(=O)[O-])[C@H](OS(=O)(=O)[O-])[C@@H]3O[C@H]3O[C@@H](COS(=O)(=O)[O-])[C@H](OS(=O)(=O)[O-])[C@H](OS(=O)(=O)[O-])[C@@H]3OS(=O)(=O)[O-])[C@H](OS(=O)(=O)[O-])[C@@H]2OS(=O)(=O)[O-])[C@@H](OS(=O)(=O)[O-])[C@@H](OS(=O)(=O)[O-])[C@H]1OS(=O)(=O)[O-].[Na+].[Na+].[Na+].[Na+].[Na+].[Na+].[Na+].[Na+].[Na+].[Na+].[Na+].[Na+].[Na+].[Na+] (stereo in doubt; 13)	> 477	> 477	0.5
O=S(=O)(O)OC[C@@H]1O[C@H](O[C@H]2O[C@@H](COS(=O)(=O)O)[C@@H](O[C@@H]3O[C@@H](COS(=O)(=O)O)[C@@H](OS(=O)(=O)O)[C@H](OS(=O)(=O)O)[C@@H]3O[C@H]3O[C@@H](COS(=O)(=O)O)[C@H](OS(=O)(=O)O)[C@H](OS(=O)(=O)O)[C@@H]3OS(=O)(=O)O)[C@H](OS(=O)(=O)O)[C@@H]2OS(=O)(=O)O)[C@@H](OS(=O)(=O)O)[C@@H](OS(=O)(=O)O)[C@H]1OS(=O)(=O)O (stereo in doubt; 14)	> 477	> 477	–
